Assay results taken from PMC6751662, “Pharmacological and functional similarities of the human neuropeptide Y system in C. elegans challenges phylogenetic views on the FLP/NPR system” (Cell Communication and Signaling : CCS, 2019).
Ends that are not written are not given here.

Legend:
[1] = test system: NPR-6; experiment: cAMP reporter gene assay, Gi/o (inhibition of forskolin-induced cAMP), NPR-6; assay type: cell-based, C. elegans; details: for cAMP, x-fold of forskolin (mean), NPR-6: 1 µM forskolin set to 1.00; for cAMP, x-fold of forskolin (mean), NPR-6 / Gi (Gs) [x-fold of forskolin], NPR-6, mean: transiently transfected HEK293 cells, mean of at least three independent experiments; for cAMP assay Gi, NPR-6: 4 h, lower = higher Gi/o activity, transfected HEK293, CRE-luciferase, mean of >=3 independent experiments; for Gi (Gs) [x-fold of forskolin], NPR-6, mean: inhibition of cAMP production induced by 1 µM forskolin (set to 1.00)
Method: (§1) Activation of Gs and Gi/o was assessed with a cAMP reporter gene assay. HEK293 cells grown to 70–80% confluency in 6-well plates were transiently co-transfected with vectors encoding the receptor and the cAMP reporter gene plasmid pGL4.29 [luc2P/CRE/Hygro] (Promega; 4 μg total, 1:1 ratio) using Metafectene Pro (3 μl/μg DNA; Biontex) following the manufacturer’s instructions. 16 h post transfection, the cells were seeded into white 384-well plates at a density of 20,000 cells/well. On the next day, the medium was removed and the cells were stimulated with 20 μl of peptide solution (or forskolin as positive control) in serum-free DMEM for 4 h. For measuring Gi/o activity, the peptide solutions additionally contained 1 μM forskolin to elevate cellular cAMP levels. After incubation, the luciferase substrate OneGlo in lysis buffer (Promega) was added and the luminescence was measured in a microplate reader Tecan Spark (Tecan). Data were analyzed with GraphPad Prism 5.03 and are shown as fold of basal or fold of forskolin in case of Gαi/o activity.
(§2) For in vitro activation, data is presented as mean ± SEM of at least three independent experiments conducted in technical triplicate. […] For the C. elegans NPRs, we considered the strongest response elicited by any of the peptides downstream of a particular receptor as the receptor’s maximal signal. This may or may not be the biological maximum that can be reached by the ‘true’ endogenous agonist. For the human receptors, the response to the established endogenous agonist reflected the maximal signal.

[2] = target: T1, Y2R (Homo sapiens, UniProt P49146); experiment: IP accumulation assay, chimeric GαΔ6qi4myr, Y2R; assay type: cell-based; details: chimeric GαΔ6qi4myr co-transfected, transiently transfected HEK293 cells, mean of at least three independent experiments
T1 construct: expressed in transfected cells; host or cells: HEK293, transient
T1 sequence (P49146 1-381): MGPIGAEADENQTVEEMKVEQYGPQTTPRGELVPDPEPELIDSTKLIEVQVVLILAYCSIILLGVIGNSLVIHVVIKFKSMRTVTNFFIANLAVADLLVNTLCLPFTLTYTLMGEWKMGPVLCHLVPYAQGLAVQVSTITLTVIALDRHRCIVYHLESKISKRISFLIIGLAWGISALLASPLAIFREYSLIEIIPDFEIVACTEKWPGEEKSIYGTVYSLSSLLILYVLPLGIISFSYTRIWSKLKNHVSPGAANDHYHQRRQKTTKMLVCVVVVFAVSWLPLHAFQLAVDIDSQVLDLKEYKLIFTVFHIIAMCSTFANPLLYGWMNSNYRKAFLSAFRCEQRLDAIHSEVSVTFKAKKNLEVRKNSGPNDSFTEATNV
Method: For measuring IP accumulation, HEK293 cells grown to 70–80% confluency in 6-well plates were transiently co-transfected using Metafectene Pro (2.5 μl/μg DNA; Biontex) with plasmids containing receptor and/or mock (empty pcDNA3.1) (for endogenous Gq-coupling) using 4 μg total DNA in a ratio of 3:1 following the manufacturer’s instructions. For testing Gα16- and GαΔ6qi4myr-coupling, plasmids encoding the corresponding Gα protein were co-transfected instead of mock. Gα16 is naturally promiscuous and stimulates the phospholipase C (PLC) pathway leading to IP production, while the exchange of the C-terminal four amino acids of Gαq for the corresponding residues of Gαi1 in the chimeric GαΔ6qi4myr confers the ability to couple to Gi/o protein-preferring receptors but still stimulate PLC, thus specifically redirecting downstream cellular signaling. 16 h post transfection, the cells were seeded into white 384-well plates at a density of 20,000 cells/well. Media was removed 24 h later and the cells were incubated with the indicated concentration of peptides for 1 h in HBSS + 20 mM LiCl. IP accumulation was measured with the HTRF-based IP-One Gq kit (Cisbio) on a microplate reader (Tecan Spark).
as §2

[3] = target: T2, NPR-5b (Caenorhabditis elegans, UniProt Q6F3C9); experiment: cAMP reporter gene assay, Gi/o (with forskolin), NPR-5b; assay type: cell-based, C. elegans; parameters: Emax: unit not given here; details: for cAMP, x-fold of forskolin (mean), NPR-5b: 1 µM forskolin set to 1.00, values > 1 = cAMP stimulation; for cAMP, x-fold of forskolin (mean), NPR-5b / Emax / EC50 / Gi (Gs) [x-fold of forskolin], NPR-5b, mean: transiently transfected HEK293 cells; for cAMP, x-fold of forskolin (mean), NPR-5b / Gi (Gs) [x-fold of forskolin], NPR-5b, mean: mean of at least three independent experiments; for cAMP assay Gi, NPR-5b: 4 h, transfected HEK293, CRE-luciferase, increase consistent with Gs coupling, mean of >=3 independent experiments; for Emax / EC50: NPR-5b; for Emax: forskolin (1 µM) set to 1.00, increase of cAMP, mean ± SEM of at least three independent experiments, SEM; for EC50: full concentration-response curve, with 1 µM forskolin, increase of cAMP, at least three independent experiments; for Gi (Gs) [x-fold of forskolin], NPR-5b, mean: with 1 µM forskolin (set to 1.00), increase of cellular cAMP consistent with Gs coupling
T2 sequence (Q6F3C9 1-433): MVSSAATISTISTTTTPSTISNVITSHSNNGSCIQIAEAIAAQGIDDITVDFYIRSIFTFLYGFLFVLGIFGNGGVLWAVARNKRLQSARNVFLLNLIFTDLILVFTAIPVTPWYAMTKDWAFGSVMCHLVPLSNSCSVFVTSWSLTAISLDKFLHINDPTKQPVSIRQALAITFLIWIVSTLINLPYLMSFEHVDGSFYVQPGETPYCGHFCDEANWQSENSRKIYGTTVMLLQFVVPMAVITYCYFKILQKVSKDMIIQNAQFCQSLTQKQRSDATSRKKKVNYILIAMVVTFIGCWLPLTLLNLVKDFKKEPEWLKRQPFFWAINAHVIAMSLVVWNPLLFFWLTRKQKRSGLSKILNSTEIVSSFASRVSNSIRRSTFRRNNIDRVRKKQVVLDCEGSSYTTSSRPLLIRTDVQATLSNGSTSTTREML
Method: as §1, with “(Tecan).” for “(Tecan). Data were analyzed with GraphPad Prism 5.03 and are shown as fold of basal or fold of forskolin in case of Gαi/o activity.”
as §2

[4] = 0.1 µM peptide + 1 µM forskolin (set to 1.00)
[5] = 10 µM peptide + 1 µM forskolin (set to 1.00)

IP accumulation, x-fold of basal (mean), Y2R ([2]; 0.1 µM peptide) | IP accumulation, x-fold of basal (mean), Y2R ([2]; 10 µM peptide) | cAMP, x-fold of forskolin (mean), NPR-5b ([3]; 0.1 µM peptide) | cAMP, x-fold of forskolin (mean), NPR-5b ([3]; 10 µM peptide) | Substance | cAMP, x-fold of forskolin (mean), NPR-6 ([1]; 0.1 µM peptide) | cAMP, x-fold of forskolin (mean), NPR-6 ([1]; 10 µM peptide) | also measured
1.30 x-fold of basal | 10.62 x-fold of basal | 0.84 x-fold of forskolin | 2.19 x-fold of forskolin | TSGPLGNLAEELNGYSRKKGGFSFRF-NH2 [QRFP26, human pyroglutamylated RFamide peptide, 26 residues, reference compound] | 0.97 x-fold of forskolin | 0.93 x-fold of forskolin | 
0.81 x-fold of basal | 5.05 x-fold of basal | 0.90 x-fold of forskolin | 1.05 x-fold of forskolin | TPDINPAWYASRGIRPVGRF-NH2 [PrRP20, human prolactin-releasing peptide, 20 residues, reference compound] | 0.96 x-fold of forskolin | 1.19 x-fold of forskolin | 
 |  | 0.88 x-fold of forskolin | 1.61 x-fold of forskolin | EASAFGDIIGELKGKGLGGRMRF-NH2 [FLP-27, NPY-like C. elegans FLP with C-terminal RxRF/Ya signature] | 1.02 x-fold of forskolin | 0.88 x-fold of forskolin | 
0.88 x-fold of basal | 4.08 x-fold of basal | 0.91 x-fold of forskolin | 1.96 x-fold of forskolin | APKPKFIRF-NH2 [FLP-5-1, C. elegans FMRFamide-like peptide, C-terminally amidated, synthesized by SPPS] | 0.84 x-fold of forskolin | 1.01 x-fold of forskolin | cAMP assay Gi, NPR-6 [1, 4]: 0.85 x-fold of forskolin; cAMP assay Gi, NPR-6 [1, 5]: 1.01 x-fold of forskolin; cAMP assay Gi, NPR-5b [3, 4]: 0.92 x-fold of forskolin; cAMP assay Gi, NPR-5b [3, 5]: 1.90 x-fold of forskolin
 |  |  |  | GLGPRPLRF-NH2 [FLP-21] |  |  | Emax [3]: 3.8 ± 0.26; EC50 [3]: 0.432 µM
 |  |  |  | GLGPRPLAF-NH2 [[R8A]FLP-21, R8A control peptide of FLP-21, penultimate arginine exchanged for an alanine] |  |  | Gi (Gs) [x-fold of forskolin], NPR-6, mean ([1]; 0.1 µM peptide): 1.00 x-fold of forskolin; Gi (Gs) [x-fold of forskolin], NPR-6, mean ([1]; 10 µM peptide): 0.86 x-fold of forskolin; Gi (Gs) [x-fold of forskolin], NPR-5b, mean ([3]; 0.1 µM peptide): 1.06 x-fold of forskolin; Gi (Gs) [x-fold of forskolin], NPR-5b, mean ([3]; 10 µM peptide): 0.97 x-fold of forskolin
2.81 x-fold of basal | 1.41 x-fold of basal | 1.02 x-fold of forskolin | 1.72 x-fold of forskolin | AGSDPNFLRF-NH2 [FLP-1-2, C. elegans FMRFamide-like peptide, C-terminally amidated, synthesized by SPPS] | 0.94 x-fold of forskolin | 0.29 x-fold of forskolin | 
 |  |  |  | RGPSGPLRF-NH2 [FLP-15-2] |  |  | Emax [3]: 3.28 ± 1.7; EC50 [3]: 6.65 µM
 |  |  |  | SEVPGVLRF-NH2 [FLP-18-5] |  |  | Emax [3]: 3.6 ± 0.22
 |  |  |  | RGPSGPLAF-NH2 [[R8A]FLP-15-2] |  |  | Gi (Gs) [x-fold of forskolin], NPR-6, mean ([1]; 0.1 µM peptide): 0.92 x-fold of forskolin; Gi (Gs) [x-fold of forskolin], NPR-6, mean ([1]; 10 µM peptide): 0.99 x-fold of forskolin; Gi (Gs) [x-fold of forskolin], NPR-5b, mean ([3]; 0.1 µM peptide): 0.98 x-fold of forskolin; Gi (Gs) [x-fold of forskolin], NPR-5b, mean ([3]; 10 µM peptide): 0.93 x-fold of forskolin
 |  | 0.79 x-fold of forskolin | 0.85 x-fold of forskolin | APLEGFEDMSGFLRTIDGIQKPRF-NH2 [FLP-33, NPY-like C. elegans FLP with C-terminal RxRF/Ya signature] | 0.86 x-fold of forskolin | 0.91 x-fold of forskolin | 

Substance | IP accumulation, x-fold of basal (mean), Y2R ([2]; 0.1 µM peptide) | IP accumulation, x-fold of basal (mean), Y2R ([2]; 10 µM peptide) | cAMP, x-fold of forskolin (mean), NPR-5b ([3]; 0.1 µM peptide) | cAMP, x-fold of forskolin (mean), NPR-5b ([3]; 10 µM peptide) | cAMP, x-fold of forskolin (mean), NPR-6 ([1]; 0.1 µM peptide) | cAMP, x-fold of forskolin (mean), NPR-6 ([1]; 10 µM peptide) | also measured
PrRP31 [reference compound] | 0.76 x-fold of basal | 5.57 x-fold of basal | 0.91 x-fold of forskolin | 1.10 x-fold of forskolin | 0.96 x-fold of forskolin | 1.25 x-fold of forskolin | 
